# Laboratory results: EP0643699B1, “6-(2-HYDROXYETHYLAMINOALKYL)-5,11-DIOXO-5,6-DIHYDRO-11H- INDENO[1,2-C]ISOQUINOLINES AND THEIR USE AS ANTINEOPLASTIC AGENTS” (priority 1991, dated 1993)
# Marks after values point to notes of the source that are not given here.
# Columns and labels:
# L1210/MX = experiment: Cytotoxicity: incorporation of [14C]amino-acid mixture, variant resistant to mitoxantron; format: cell-based; conditions: Mus musculus; Tumor L1210/MX; Precursor [U-14C]Amino-acid mixture
# Excerpt: (§1) The antineoplastic activity of the compounds of the invention has been investigated testing the compounds of the chemical group "in vivo" against experimental rodent tumors such as the solid form of Ehrlich tumour (STE, originally mammary adenocarcinoma), tumor HK (also transplantable originally mammary adenocarcinoma), Krebs' ascites tumour (Kr2), S37 ascites sarcoma, Nemeth-Keller lymphoma (NK), all maintained in mice H, Gardner lymphosarcoma (LsG, maintained in mice C3H), P388 and/or L1210 leukemia (maintained in DBA2 mice), B16 metastasizing melanocarcinoma (maintained in C57B1/6 mice) and Yoshida ascites reticulosarcoma (Y, maintained in Wistar rats) in experiments according to Jelinek, V. [Neoplasma 12, 469 (1965); ibid 7, 146 (1960)] and in "in vitro" experiments using radioactive precursors of nucleic acids and proteins according to Miko, M. et al. [Cancer Res 39, 4242 (1979); Neoplasma 26, 449 (1979); ibid 16, 161 (1969)] with minor modifications [Mattern, J.: Studies on the Drug Sensitivity of Short Term Cultured Tumour Cell Suspensions. In "Human Tumours in Short Term Culture" (Dendy, P.P. ed.), p.301, Academic Press 1976]. The Cox's proportional-hazards model was used for survival evaluation and optimal dose calculation according to Carter, V.H. et al. [cf Cancer Res. 42, 2963 (1982)]. […]
# Ehrlich tumour = experiment: Antitumour activity against solid form of Ehrlich tumour in mice (tumour weight, survival); format: in vivo, mice H; conditions: the fifth day after tumour transplantation; for Tumour weight (T/C, %): weighed on the fourteenth day
# Excerpt: (§2) The antineoplastic activity of the compounds of the invention has been investigated testing the compounds of the chemical group "in vivo" against experimental rodent tumors such as the solid form of Ehrlich tumour (STE, originally mammary adenocarcinoma), tumor HK (also transplantable originally mammary adenocarcinoma), Krebs' ascites tumour (Kr2), S37 ascites sarcoma, Nemeth-Keller lymphoma (NK), all maintained in mice H, Gardner lymphosarcoma (LsG, maintained in mice C3H), P388 and/or L1210 leukemia (maintained in DBA2 mice), B16 metastasizing melanocarcinoma (maintained in C57B1/6 mice) and Yoshida ascites reticulosarcoma (Y, maintained in Wistar rats) in experiments according to Jelinek, V. [Neoplasma 12, 469 (1965); ibid 7, 146 (1960)] and in "in vitro" experiments using radioactive precursors of nucleic acids and proteins according to Miko, M. et al. [Cancer Res 39, 4242 (1979); Neoplasma 26, 449 (1979); ibid 16, 161 (1969)] with minor modifications [Mattern, J.: Studies on the Drug Sensitivity of Short Term Cultured Tumour Cell Suspensions. In "Human Tumours in Short Term Culture" (Dendy, P.P. ed.), p.301, Academic Press 1976]. The Cox's proportional-hazards model was used for survival evaluation and optimal dose calculation according to Carter, V.H. et al. [cf Cancer Res. 42, 2963 (1982)].
# Sixty female mice H weighing approximately 20 g were divided into three groups: one control group and two experimental groups of 20 animal each. A lethal dose of the 40 Ehrlich tumour homogenate was implanted subcutaneously to all the animals. The animals of test groups were treated using the compounds suspended in water. […] On the fourteenth day after the tumour transplantation, half of the animals in each group were killed by ether anaesthesia, tumours were removed and weighed. The remaining animals were left to monitor the time of death and survival time was followed. […] It was also observed that the treated animals survived longer than untreated control animals.
# Yoshida reticulosarcoma = experiment: Survival of rats bearing Yoshida ascites reticulosarcoma; format: in vivo, Wistar rats; conditions: T/C
# Excerpt: as §2
# Seventy infantile Vistar female rats weighing 63.0-64.8 g were divided into seven groups: one control group and six experimental groups of 10 animal each. A lethal dose of the Yoshida reticulosarcoma ascitic fluid was implanted intraperitoneally to all the animals. The animals of test groups were treated using the compound suspended in water. The suspension contained the substance in such a concentration that dose 0.6, 0.4 and/or 0.2 ml of the suspension was equal to dose 200, 100 and/or 50 mg/kg p.o., or 40, 20 and/or 10 mg/kg s.c., respectively. Doses of the drug were administered to the experimental animals once a day, for five consecutive days, starting on the first day after tumour transplantation. In all animals survival was followed. It was observed that the treated animals survived longer than untreated control animals. […] The results of the experiment are summarized in the following table and shown in the graph on the Fig. 1.
# L1210 leukemia cells = experiment: Cytotoxicity: incorporation of [14C]amino-acid mixture into trichloroacetic acid-insoluble fraction of cells; format: cell-based, DBA2 mice; conditions: Mus musculus; Tumor L1210; Precursor [U-14C]Amino-acid mixture
# Excerpt: as §1
structure (smiles),measurement,setting,value
"O=C1c2ccccc2-c2c1c1ccccc1c(=O)n2CCNCCO [I (X=2), 6-[2-(2-hydroxyethyl)aminoethyl]-5,11-dioxo-5,6-dihydro-11H-indeno[1,2-c]isoquinoline]",IC50,L1210/MX,119 µM
same,"Survival time (T/C, %)",Ehrlich tumour; 200 mg/kg p.o. once,111%
same,"Tumour weight (T/C, %)",Ehrlich tumour; 200 mg/kg p.o. once,79^a) %
same,"Survival time (T/C, %)",Ehrlich tumour; 400 mg/kg p.o. once,152^a) %
same,"Tumour weight (T/C, %)",Ehrlich tumour; 400 mg/kg p.o. once,31^b) %
same,Period of survival (% of control),Yoshida reticulosarcoma; p.o. 50 mg/kg once a day for five consecutive days,132%
same,Period of survival (% of control),Yoshida reticulosarcoma; p.o. 100 mg/kg once a day for five consecutive days,"230^b,^e) %"
same,Period of survival (% of control),Yoshida reticulosarcoma; p.o. 200 mg/kg once a day for five consecutive days,"219^b,^d) %"
same,Period of survival (% of control),Yoshida reticulosarcoma; s.c. 10 mg/kg once a day for five consecutive days,203 ^b) %
same,Period of survival (% of control),Yoshida reticulosarcoma; s.c. 20 mg/kg once a day for five consecutive days,139^a) %
same,Period of survival (% of control),Yoshida reticulosarcoma; s.c. 40 mg/kg once a day for five consecutive days,86%
same,IC50,L1210 leukemia cells,78 µM
